Three compounds from patent US20180353460A1, “METHODS OF TREATING UROLOGICAL DISORDERS USING SARMs” (priority 2014, published 2018) can be followed below.

This experiment relates to prostate, seminal vesicles and levator ani muscle. The experiment in a line: Androgenic and anabolic activity in intact male rats, daily oral gavage. The format is in vivo, rat. Here is the method:
Male Sprague-Dawley rats weighing approximately 200 g were purchased from Harlan Bioproducts for Science (Indianapolis, Ind.). The animals were maintained on a 12 h light/dark cycle with food (7012C LM-485 Mouse/Rat Sterilizable Diet, Harlan Teklad, Madison, Wis.) and water available ad libitum. The anabolic and androgenic activity of compound of Formula VIII in intact animals was tested, as well as a dose response evaluation in acutely orchidectomized (ORX) animals. Regenerative effects of the compound of Formula VIII in chronically (9 days) ORX rats was similarly evaluated.
The test article for this study was weighed and dissolved in 10% DMSO (Fisher) diluted with PEG 300 (Acros Organics, NJ) for preparation of the appropriate dosage concentrations. The animals were housed in groups of 2 to 3 animals per cage. Animals were randomly assigned to one of seven groups consisting of 4 to 5 animals per group. Control groups (intact and ORX) were administered vehicle daily. Compound of Formula VIII was administered via oral gavage at doses of 0.01, 0.03, 0.1, 0.3, 0.75, and 1 mg/day to both intact and ORX groups. Where appropriate, animals were castrated on day one of the study. Treatment with compound of Formula VIII began nine days post ORX and was administered daily via oral gavage for fourteen days.
The animals were sacrificed under anesthesia (ketamine/xyalzine, 87:13 mg/kg) and body weights were recorded. In addition, ventral prostate, seminal vesicles, and levator ani muscle were removed, individually weighed, normalized to body weight, and expressed as a percentage of intact control. Student's T-test was used to compare individual dose groups to the intact control group. Significance was defined a priori as a P-value <0.05. Ventral prostate and seminal vesicle weights were evaluated as a measure of androgenic activity, whereas levator ani muscle weight was evaluated as a measure of anabolic activity. Blood was collected from the abdominal aorta, centrifuged, and sera were frozen at −80° C. prior to determination of serum hormone levels. Serum luteinizing hormone (LH) and follicle stimulating hormone (FSH) concentrations were determined.
Male Sprague-Dawley rats weighing approximately 200 g were purchased from Harlan Bioproducts for Science (Indianapolis, Ind.). The animals were maintained on a 12 h light/dark cycle with food (7012C LM-485 Mouse/Rat Sterilizable Diet, Harlan Teklad, Madison, Wis.) and water available ad libitum. Anabolic and androgenic activity of compound of Formula IX in intact animals was evaluated, and the dose response in acutely orchidectomized (ORX) animals was evaluated as well. Regenerative effects of compound of Formula IX in chronically (9 days) ORX rats were also assessed.
The compound was weighed and dissolved in 10% DMSO (Fisher) diluted with PEG 300 (Acros Organics, NJ) for preparation of the appropriate dosage concentrations. The animals were housed in groups of 2 to 3 animals per cage. Intact and ORX animals were randomly assigned to one of seven groups consisting of 4 to 5 animals per group. Control groups (intact and ORX) were administered vehicle daily. Compound of Formula IX was administered via oral gavage at doses of 0.01, 0.03, 0.1, 0.3, 0.75, and 1 mg/day to both intact and ORX groups.
Castrated animals (on day one of the study) were randomly assigned to dose groups (4-5 animals/group) of 0.01, 0.03, 0.1, 0.3, 0.75, and 1 mg/day, for dose-response evaluation. Dosing began nine days post ORX and was administered daily via oral gavage for fourteen days. The animals were sacrificed under anesthesia (ketamine/xyalzine, 87:13 mg/kg) after a 14-day dosing regimen, and body weights were recorded. In addition, ventral prostate, seminal vesicles, and levator ani muscle were removed, individually weighed, normalized to body weight, and expressed as a percentage of intact control. Student's T-test was used to compare individual dose groups to the intact control group. […]

As for `C[C@](O)(COc1ccc(C#N)cc1)C(=O)Nc1ccc(C#N)c(Cl)c1` [VIII, (S)—N-(3-Chloro-4-cyanophenyl)-3-(4-cyanophenoxy)-2-hydroxy-2-methylpropanamide], the “levator ani muscle weight” value reads like this: (0.01 mg/day) 107%±5%; (0.03 mg/day) 103%±7%; (0.1 mg/day) 97%±7%; (0.3 mg/day) 103%±5%; (0.75 mg/day) 118%±7%; (1 mg/day) 118%±7%. Also, the prostate weight by setting is: (0.01 mg/day) 103%±10%; (0.03 mg/day) 99%±10%; (0.1 mg/day) 58%±10%; (0.3 mg/day) 58%±15%; (0.75 mg/day) 65%±20%; (1 mg/day) 77%±23%.

Regarding `C[C@](O)(COc1ccc(C#N)cc1)C(=O)Nc1ccc(C#N)c(C(F)(F)F)c1` [Compound IX, (S)—N-(4-Cyano-3-(trifluoromethyl)phenyl)-3-(4-cyanophenoxy)-2-hydroxy-2-methylpropanamide], the “levator ani muscle weight” value was 120%±12% (0.01 mg/day); 116%±7% (0.03 mg/day); 128%±7% (0.1 mg/day); 134%±7% (0.3 mg/day); 125%±9% (0.75 mg/day); 146%±17% (1 mg/day). Also, the prostate weight is recorded as 111%±21% (0.01 mg/day); 88%±15% (0.03 mg/day); 77%±17% (0.1 mg/day); 71%±16% (0.3 mg/day); 71%±10% (0.75 mg/day); 87%±13% (1 mg/day). Moreover, the seminal vesicle weight reads like this: (0.01 mg/day) 94%±9%; (0.03 mg/day) 77%±11%; (0.1 mg/day) 80%±9%; (0.3 mg/day) 73%±12%; (0.75 mg/day) 77%±10%; (1 mg/day) 88%±14%.

On to `C[C@](O)(COc1ccc(C#N)c(F)c1)C(=O)Nc1ccc(C#N)c(C(F)(F)F)c1` [XIII, (S)—N-(4-cyano-3-(trifluoromethyl)phenyl)-3-(4-cyano-3-fluorophenoxy)-2-hydroxy-2-methylpropanamide], for which the “levator ani muscle weight” value runs as follows: (0.01 mg/day) 116%±7%; (0.03 mg/day) 134%±8%; (0.1 mg/day) 134%±21%; (0.3 mg/day) 134%±11%; (0.75 mg/day) 142%±10%; (1 mg/day) 147%±10%. The prostate weight is, setting by setting: (0.01 mg/day) 98%±21%; (0.03 mg/day) 99%±8%; (0.1 mg/day) 85%±18%; (0.3 mg/day) 98%±22%; (0.75 mg/day) 126%±17%; (1 mg/day) 126%±17%. The seminal vesicle weight runs as follows: (0.01 mg/day) 115%±12%; (0.03 mg/day) 109%±17%; (0.1 mg/day) 106%±13%; (0.3 mg/day) 121%±11%; (0.75 mg/day) 157%±5%; (1 mg/day) 136%±3%.
